The target of experiment [1] is T1, Cysteine protease falcipain-3 (Plasmodium falciparum, UniProt Q9NAW4).
T1 sequence (Q9NAW4 whole entry): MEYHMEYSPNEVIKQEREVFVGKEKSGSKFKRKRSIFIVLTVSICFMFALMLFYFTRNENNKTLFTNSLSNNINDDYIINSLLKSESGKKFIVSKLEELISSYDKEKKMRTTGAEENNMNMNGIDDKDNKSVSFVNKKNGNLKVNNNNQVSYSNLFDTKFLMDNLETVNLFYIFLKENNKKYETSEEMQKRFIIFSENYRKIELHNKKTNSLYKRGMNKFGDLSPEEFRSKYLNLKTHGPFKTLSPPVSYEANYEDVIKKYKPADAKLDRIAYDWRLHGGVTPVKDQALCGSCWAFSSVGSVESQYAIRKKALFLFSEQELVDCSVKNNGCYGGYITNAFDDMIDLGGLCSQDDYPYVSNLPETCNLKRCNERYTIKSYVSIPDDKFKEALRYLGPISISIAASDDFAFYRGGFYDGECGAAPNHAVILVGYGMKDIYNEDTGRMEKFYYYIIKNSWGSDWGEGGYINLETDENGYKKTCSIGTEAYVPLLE
In words: Inhibition of Plasmodium falciparum cysteine protease falcipain-3.

The test system of the next experiment is Plasmodium falciparum. Description: Antimicrobial activity against chloroquine-resistant Plasmodium falciparum W2 assessed as growth inhibition. Format: functional, organism-based.
The next experiment addresses T2, Falcipain 2 (Plasmodium falciparum, UniProt Q9N6S8).
T2 sequence (Q9N6S8 whole entry): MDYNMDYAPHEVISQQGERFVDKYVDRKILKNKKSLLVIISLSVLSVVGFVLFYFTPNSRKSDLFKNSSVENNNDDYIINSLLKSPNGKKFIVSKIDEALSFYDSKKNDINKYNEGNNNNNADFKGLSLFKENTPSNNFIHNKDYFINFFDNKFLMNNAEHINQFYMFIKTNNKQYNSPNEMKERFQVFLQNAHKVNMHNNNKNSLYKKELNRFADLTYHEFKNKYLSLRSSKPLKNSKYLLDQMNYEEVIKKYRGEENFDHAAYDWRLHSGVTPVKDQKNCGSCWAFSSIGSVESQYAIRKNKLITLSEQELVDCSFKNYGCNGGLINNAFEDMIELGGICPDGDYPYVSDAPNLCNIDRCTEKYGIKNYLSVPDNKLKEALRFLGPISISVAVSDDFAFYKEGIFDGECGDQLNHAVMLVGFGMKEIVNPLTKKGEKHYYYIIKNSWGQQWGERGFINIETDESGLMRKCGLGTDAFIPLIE
Description: Inhibition of Plasmodium falciparum cysteine protease falcipain-2.

In general, IC50 refers to the point on the concentration scale where inhibition reaches its midpoint.

For the molecule `O=C(CO)[C@H](CCc1ccccc1)NC(=O)[C@@H]1CCCN1C(=O)OCc1ccccc1`, the IC50 (in experiment [1]; with Plasmodium falciparum; on Falcipain 2) was more than 50 µM each time.
`O=C(CSCCCc1ccccc1)[C@H](CCc1ccccc1)NC(=O)[C@@H]1CCCN1C(=O)OCc1ccccc1`: the results for the IC50 (in experiment [1]; in the experiment on Plasmodium falciparum; on Falcipain 2) were more than 50 µM, 13.8 µM and 48.1 µM, respectively.
Consider `CC(=O)SCC(=O)[C@H](CCc1ccccc1)NC(=O)[C@@H]1CCCN1C(=O)OCc1ccccc1`, for which the IC50 is 36.4 µM in experiment [1], 18.1 µM in the experiment on Plasmodium falciparum and more than 50 µM on Falcipain 2.
In the same order, the values of `CC(=O)OCC(=O)[C@H](CCc1ccccc1)NC(=O)[C@@H]1COC(C)(C)N1C(=O)OCc1ccccc1` are more than 50 µM, more than 50 µM and more than 50 µM.
In the same order, the values of `CC1(C)OC[C@@H](C(=O)N[C@@H](CCc2ccccc2)C(=O)CO)N1C(=O)OCc1ccccc1` are more than 50 µM, more than 50 µM and more than 50 µM.
On to `O=C(N[C@H]1CCCC[C@H]1C(=O)N[C@@H](CCc1ccccc1)C(=O)CO)OCc1ccccc1`, for which the IC50 in experiment [1] is 0.54 µM; in the experiment with Plasmodium falciparum it was more than 50 µM; on Falcipain 2, 5.52 µM.
In the same order, the values of `O=C(N[C@@H]1CCCC[C@@H]1C(=O)N[C@@H](CCc1ccccc1)C(=O)CO)OCc1ccccc1` are 0.91 µM, 47.6 µM and 4.42 µM.
Consider `O=C(N[C@H]1CC=CC[C@H]1C(=O)N[C@@H](CCc1ccccc1)C(=O)CO)OCc1ccccc1`, for which the IC50 in experiment [1] is 20.2 µM; in the experiment with Plasmodium falciparum, more than 50 µM; at Falcipain 2, more than 50 µM.
In the case of `O=C(N[C@H]1CCC[C@H]1C(=O)N[C@@H](CCc1ccccc1)C(=O)CO)OCc1ccccc1`, the IC50 in experiment [1] is 23.9 µM; in the experiment on Plasmodium falciparum, more than 50 µM; against Falcipain 2, more than 50 µM.
Consider `CC(=O)OCC(=O)[C@H](CCc1ccccc1)NC(=O)[C@@H]1Cc2ccccc2CN1C(=O)OCc1ccccc1`, for which the IC50 (in experiment [1]; in the experiment with Plasmodium falciparum; against Falcipain 2) was more than 50 µM in each case.
Consider `O=C(CO)[C@H](CCc1ccccc1)NC(=O)[C@@H]1Cc2ccccc2CN1C(=O)OCc1ccccc1`, for which the IC50 (in experiment [1]; in the experiment on Plasmodium falciparum; against Falcipain 2) was more than 50 µM throughout.
For the molecule `O=C1CCC(NC(=O)OCc2ccccc2)(C(=O)N[C@@H](CCc2ccccc2)C(=O)CO)CC1`, the IC50 in experiment [1] is 47.2 µM; with Plasmodium falciparum, 23.3 µM; at Falcipain 2, more than 50 µM.
Take `CC(=O)OCC(=O)[C@H](CCc1ccccc1)NC(=O)C1(NC(=O)OCc2ccccc2)CCSCC1`: the figures for the IC50 (in experiment [1]; in the experiment on Plasmodium falciparum; at Falcipain 2) were more than 50 µM, more than 50 µM and 33.9 µM, respectively.
`O=C(NC1(C(=O)N[C@@H](CCc2ccccc2)C(=O)CO)CCSCC1)OCc1ccccc1`: the IC50 in experiment [1] is 8.22 µM; with Plasmodium falciparum, 28.2 µM; against Falcipain 2, 3.25 µM.
With `CC(=O)OCC(=O)[C@H](CCc1ccccc1)NC(=O)[C@H](CCc1ccccc1)NC(=O)OCc1ccccc1`, the IC50 was more than 50 µM in experiment [1], more than 50 µM in the experiment on Plasmodium falciparum and 29.7 µM at Falcipain 2.
Turning to `O=C(N[C@@H](CCc1ccccc1)C(=O)N[C@@H](CCc1ccccc1)C(=O)CO)OCc1ccccc1`, the IC50 in experiment [1] stood at 11.9 µM; in the experiment on Plasmodium falciparum, 37.2 µM; against Falcipain 2, 30.1 µM.
Turning to `CC(=O)OCC(=O)[C@H](CCc1ccccc1)NC(=O)C1C2C=CC(C2)C1NC(=O)OCc1ccccc1` (stereo partly specified), the IC50 (in experiment [1]; in the experiment with Plasmodium falciparum; against Falcipain 2) was more than 50 µM in each case.
Regarding `O=C(NC1C2C=CC(C2)C1C(=O)N[C@@H](CCc1ccccc1)C(=O)CO)OCc1ccccc1` (stereo partly specified), the IC50 came out at 25.4 µM in experiment [1], 47.2 µM in the experiment with Plasmodium falciparum and 33.6 µM at Falcipain 2.
In the same order, the values of `O=C(CO)[C@H](CCc1ccccc1)NC(=O)[C@@H]1C[C@@H](O)CN1C(=O)OCc1ccccc1` are 0.06 µM, 7.7 µM and 0.08 µM.
Regarding `O=C(CSCCCc1ccccc1)[C@H](CCc1ccccc1)NC(=O)[C@@H]1C[C@@H](O)CN1C(=O)OCc1ccccc1`, the IC50 in experiment [1] came out at 0.52 µM; with Plasmodium falciparum, 19.6 µM; against Falcipain 2, 1.1 µM.
On to `CC(=O)SCC(=O)[C@H](CCc1ccccc1)NC(=O)[C@@H]1C[C@@H](O)CN1C(=O)OCc1ccccc1`, for which the IC50 was 3.56 µM in experiment [1], 18.6 µM in the experiment with Plasmodium falciparum and more than 50 µM on Falcipain 2.
The corresponding values for `O=C(CN1CCOCC1)[C@H](CCc1ccccc1)NC(=O)[C@@H]1C[C@@H](O)CN1C(=O)OCc1ccccc1` are more than 50 µM, 10.2 µM and more than 50 µM.

Values taken from ChEMBL document CHEMBL3120101, “Synthesis, biological evaluation, hydration site thermodynamics, and chemical reactivity analysis of α-keto substituted peptidomimetics for the inhibition of Plasmodium falciparum” (Bioorg Med Chem Lett, 2014).
